Source: US7439359B2, “Small molecule compositions for binding to hsp90” (Sloan-Kettering Institute for Cancer Research, priority 2000, dated 2008)
Where two headings read alike, the source gives them in different places.

Legend:
Hsp90 beta = biological target: T1, Hsp90 beta (Homo sapiens, UniProt P08238); assay: Solid phase competition assay with GM-beads, Hsp90 beta immunoblot; format: binding; conditions: for EC50: competition with immobilized GM, unit inferred, read-out: EC50 Hsp90 β
T1 construct: purchased Stressgen SPP-770
T1 sequence (P08238 whole entry): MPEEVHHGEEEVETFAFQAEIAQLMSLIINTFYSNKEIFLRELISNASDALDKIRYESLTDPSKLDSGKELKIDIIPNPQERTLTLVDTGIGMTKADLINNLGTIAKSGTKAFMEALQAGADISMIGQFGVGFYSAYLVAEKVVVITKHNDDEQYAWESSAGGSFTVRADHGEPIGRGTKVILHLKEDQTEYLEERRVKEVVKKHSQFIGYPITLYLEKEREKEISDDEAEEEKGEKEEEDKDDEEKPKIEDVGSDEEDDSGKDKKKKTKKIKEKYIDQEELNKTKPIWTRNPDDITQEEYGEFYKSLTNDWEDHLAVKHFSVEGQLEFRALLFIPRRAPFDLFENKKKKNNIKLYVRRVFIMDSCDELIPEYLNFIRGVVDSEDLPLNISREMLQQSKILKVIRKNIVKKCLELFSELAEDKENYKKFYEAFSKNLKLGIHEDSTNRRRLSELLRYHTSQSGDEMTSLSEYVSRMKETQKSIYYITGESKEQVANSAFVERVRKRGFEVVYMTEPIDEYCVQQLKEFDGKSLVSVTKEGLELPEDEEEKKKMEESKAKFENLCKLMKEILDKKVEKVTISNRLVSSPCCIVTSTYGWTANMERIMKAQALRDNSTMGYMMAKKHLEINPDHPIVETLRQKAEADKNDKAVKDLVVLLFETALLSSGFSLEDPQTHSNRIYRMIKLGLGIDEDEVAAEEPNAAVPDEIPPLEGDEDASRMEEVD
Description: (§1) A test was also designed which allows identification of compounds which interact differentially with Hsp90-alpha and Hsp90-beta. […] An Hsp90 protein preparation containing both the alpha and the beta form is incubated with the support in the presence or absence of a compound to be evaluated. […] After washing, the material bound to the support is eluted and the eluate is separated on an SDS/PAGE gel and visualized by immunoblotting with anti-Hsp90-alpha and anti-Hsp90-beta to determine the amount of material bound. Alternatively, if quantitative amounts of the Hsp90 protein preparation or known ratios of alpha to beta forms of Hsp90 are used in the first instance, the unbound material can be analyzed by a similar technique.
(§2) Protein Assays. […] Antiproliferative index. […] Tissue Culture IC50 Studies. […] Her2 degradation. Total Protein Assays. […] Binding studies. Solid phase competition assays.

MCF-7 = assay: Growth inhibition, sulforhodamine B assay; format: cell-based, human; conditions: unit inferred
Description: as §2

MDA-MB-468 = assay: Growth inhibition, sulforhodamine B assay; format: cell-based, human; conditions: unit inferred
Description: as §2

BT-474 = assay: Growth inhibition, sulforhodamine B assay; format: cell-based; conditions: Homo sapiens, 72 hours, unit inferred
Description: as §2

Hsp90alpha = Hsp90alpha (Homo sapiens, UniProt P07900); assay: Solid phase competition assay with GM-beads, Hsp90 alpha immunoblot; format: binding; parameters: purchased Stressgen SPP-770; conditions: for EC50: competition with immobilized GM, unit inferred, read-out: EC50 Hsp90 α
Description: as §1, §2

Her2 = Her2 total protein degradation in MCF-7 cells (immunoblot);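 further: Her2 levels judged by SDS-PAGE western blot of whole-cell lysates probed with anti-Her2 antibody, compared with DMSO vehicle-treated cells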
Description: For assays on protein levels, cells were grown to 60-70% confluence exposed to drugs or DMSO vehicle for the indicated time periods. Lysates were prepared using 50 mM Tris pH=7.4, 2% SDS and 10% glycerol lysis buffer. Protein concentration was determined using the BCA kit (Pierce Chemical Co.), according to the manufacturers instructions. Clarified protein lysates (20-50 mg) were electrophoretically resolved on denaturing SDS-PAGE, transferred to nitrocellulose and probed with the following primary antibodies: anti-Her2 (C-18), -Her3 (C-17), -Raf-1, -cyclin D1, -Rb (C-15) (Santa Cruz), anti-hsp90, -hsp70, -ER (Stressgen), anti-Trap-1 (MSK81), anti-b-actin, -tubulin (Sigma), anti-PI3K (p85) (Upstate Biotechnologies).
After 24 hours, the cells were lysed and the amount of Her2 in the cells was evaluated.
Protein Assays. Cells were grown to 60-70% confluence and exposed to drugs or DMSO vehicle for the indicated time periods. Lysates were prepared using 50 mM Tris pH 7.4, 2% SDS and 10% glycerol lysis buffer. Protein concentration was determined using the BCA kit (Pierce Chemical Co.), according to the manufacturers instructions. Clarified protein lysates (20-50 mg) were electrophoretically resolved on denaturing SDS-PAGE, transferred to nitrocellulose and probed with the following primary antibodies: anti-Her2 (C-18), -Her3 (C-17), -Raf-1, -cyclin D1, -Rb (C-15) (Santa Cruz Biotechnology), anti-hsp90, -hsp70 (Stressgen) anti-Trap-1 (MSK81), anti-b-actin, -tubulin (Sigma), ER, anti-PI3K (p85) (Upstate Biotechnologies). […] Her2 degradation. Total Protein Assays. Cells were grown to 60-70% confluence and exposed to drugs or DMSO vehicle for the indicated time periods. Lysates were prepared using 50 mM Tris pH 7.4, 2% SDS and 10% glycerol lysis buffer. Protein concentration was determined using the BCA kit (Pierce Chemical Co.), according to the manufacturers instructions. Clarified protein lysates (20-50 μg) were electrophoretically resolved on denaturing SDS-PAGE, transferred to nitrocellulose and probed with the anti-Her2 primary antibody (C-18) (Santa Cruz Biotechnology).

[1] = Homo sapiens, MDA-MB-468, 72 hours
[2] = Homo sapiens, MCF7, read-out: IC50 Her2/MCF-7
[3] = read-out: IC50 Her2/MCF-7, Her2 total protein degradation in MCF-7, unit inferred

SMILES | EC50 (Hsp90 beta) [µM] | IC50 (MCF-7; Homo sapiens, MCF7, 72 hours) [µM] | IC50 (MDA-MB-468; [1]) [µM] | IC50 (BT-474) [µM] | EC50 (Hsp90alpha) [µM] | IC50 (Her2; [2]) [µM] | IC50 (MCF-7; 72 hours) [µM] | IC50 (MDA-MB-468; 72 hours) [µM] | IC50 (Her2; [3]) [µM] | binding to hsp 90-beta (Hsp90 beta) | binding to hsp 90-alpha (Hsp90alpha)
COc1cc(Cc2nc3c(N)nc(F)nc3n2CC2CCC2)cc(OC)c1OC [PU16F, 2-Fluoro-9-cyclobutylmethyl-8-(3,4,5-trimethoxy-benzyl)-9H-purin-6-ylamine] | 9.2 | 41 | 21 | 31 | 30.7 | 40 |  |  |  |  | 
CCCn1c(Cc2cc(OC)c(OC)c(OC)c2)nc2c(N)ncnc21 [PU43] | 10.8 |  |  |  | 6.6 |  | 47 | 54 | 50 |  | 
CCCCn1c(Cc2c(Br)c(OC)c(OC)c(OC)c2Br)nc2c(N)ncnc21 [PU3PhBr2, 9-butyl-8-(2,6-dibromo-3,4,5-trimethoxy-benzyl)-9H-purin-6-ylamine] | > 100 | 30 | 21 |  | > 100 | > 100 |  |  |  |  | 
CCCn1c(Cc2cc(OC)c(OC)c(OC)c2)nc2c(N)nc(F)nc21 [PU43F, 2-Fluoro-9-propyl-8-(3,4,5-trimethoxy-benzyl)-9H-purin-6-ylamine] | 5.3 | 25 | 25 | 30 | 4.1 | 30 |  |  |  |  | 
C#CCCn1c(Cc2cc(OC)c(OC)c(OC)c2)nc2c(N)nc(F)nc21 [PU48F, 2-Fluoro-9-but-3-ynyl-8-(3,4,5-trimethoxy-benzyl)-9H-purin-6-ylamine] | 3.5 | 25 | 16 | 28 | 10 | 20 |  |  |  |  | 
COCCn1c(Cc2cc(OC)c(OC)c(OC)c2)nc2c(N)ncnc21 [PU44] | 12.4 |  |  |  | 4.1 |  | 65 | 79 | 85 |  | 
COc1cc(Cc2nc3c(N)nc(F)nc3n2CCOC(C)C)c(Cl)c(OC)c1OC [PU29FCl, 2-Fluoro-9-(2-isopropoxy-ethyl)-8-(2-chloro-3,4,5-trimethoxy-benzyl)-9H-purin-6-ylamine] | 0.52 | 5.4 | 4.5 | 4.5 | 0.65 | 3 |  |  |  |  | 
CC[C@H](C)Cn1c(Cc2cc(OC)c(OC)c(OC)c2)nc2c(N)nc(F)nc21 [PU26F, 2-Fluoro-9-[(S)-2-methyl-butyl]-8-(3,4,5-trimethoxy-benzyl)-9H-purin-6-ylamine] | 15 | 44 | 28 | 45 | 22 | 40 |  |  |  |  | 
C=CCCn1c(Cc2cc(OC)c(OC)c(OC)c2)nc2c(N)nc(F)nc21 [PU8F, 2-Fluoro-9-but-3-enyl-8-(3,4,5-trimethoxy-benzyl)-9H-purin-6-ylamine] | 9.8 | 33 | 25 | 35 | 5 | 30 |  |  |  |  | 
COc1cc(Cc2nc3c(N)ncnc3n2C)cc(OC)c1OC [PU13] |  |  |  |  |  |  | 70 | 75 |  |  | 
COc1cc(Cc2nc3c(N)ncnc3n2CCOC(C)C)cc(OC)c1OC [PU29] | 1.7 |  |  |  | 1.4 |  | 39 | 72 | 45 |  | 
CC=CCn1c(Cc2cc(OC)c(OC)c(OC)c2)nc2c(N)ncnc21 (mixture of isomers) [PU11] |  |  |  |  |  |  | 51 | 66 |  |  | 
C=CCCn1c(Cc2cc(OC)c(OC)c(OC)c2)nc2c(N)ncnc21 [PU8] | 10.6 |  |  |  | 4 |  | 41 | 73 | 30 |  | 
CC#CCCn1c(Cc2cc(OC)c(OC)c(OC)c2)nc2c(N)nc(F)nc21 [PU49F, 2-Fluoro-9-pent-3-ynyl-8-(3,4,5-trimethoxy-benzyl)-9H-purin-6-ylamine] | 10.4 | 37 | 45 | 33 | 15 | 45 |  |  |  |  | 
C#CCCCn1c(Cc2cc(OC)c(OC)c(OC)c2)nc2c(N)ncnc21 [PU24] | 1.5 | 24 | 41 |  | 2.6 | 20 |  |  |  |  | 
CCCCn1c(Cc2cc(OC)c(OC)c(OC)c2)nc2c(N)nc(F)nc21 [PU3F, 2-Fluoro-9-butyl-8-(3,4,5-trimethoxy-benzyl)-9H-purin-6-ylamine] | 3.5 | 24 | 30 | 29 | 6 | 25 |  |  |  |  | 
COc1cc(Cc2nc3c(N)ncnc3n2CCCC(C)C)cc(OC)c1OC [PU9] | 114 |  |  |  | 28 |  | 69 | 85 |  |  | 
CC/C=C\Cn1c(Cc2cc(OC)c(OC)c(OC)c2)nc2c(N)ncnc21 [PU7] | 75 |  |  |  | 17.6 |  | 64 | 80 | 70 |  | 

SMILES | EC50 (Hsp90 beta) [µM] | IC50 (MCF-7; Homo sapiens, MCF7, 72 hours) [µM] | IC50 (MDA-MB-468; [1]) [µM] | IC50 (BT-474) [µM] | EC50 (Hsp90alpha) [µM] | IC50 (Her2; [2]) [µM] | IC50 (MCF-7; 72 hours) [µM] | IC50 (MDA-MB-468; 72 hours) [µM] | IC50 (Her2; [3]) [µM] | binding to hsp 90-beta (Hsp90 beta) | binding to hsp 90-alpha (Hsp90alpha)
CCCCCn1c(Cc2cc(OC)c(OC)c(OC)c2)nc2c(N)ncnc21 [PU21] | 11.8 | 62 | 73 |  | 22.5 | 50 |  |  |  |  | 
CCCCn1c(Oc2cc(OC)c(OC)c(OC)c2)nc2c(N)ncnc21 [Compound 69, 9-Butyl-8-(3,4,5-trimethoxy-phenoxy)-9H-purin-6-ylamine] |  |  |  |  |  |  |  |  |  | weak binding | no detectable binding
COc1cc(Cc2nc3c(N)nc(F)nc3n2CC2CCCO2)cc(OC)c1OC (stereo not shown) [PU20F, 2-Fluoro-9-(tetrahydrofuran-2-ylmethyl)-8-(3,4,5-trimethoxy-benzyl)-9H-purin-6-ylamine] | 6.8 | 23 | 21 | 25 | 2.3 | 20 |  |  |  |  | 
COc1cc(Cc2nc3c(N)ncnc3n2CC2CCCO2)cc(OC)c1OC (stereo not shown) [PU20] | 3.4 | 92 | 80 |  | 4.4 | 70 |  |  |  |  | 
C#CCCCn1c(Cc2cc(OC)c(OC)c(OC)c2)nc2c(N)nc(F)nc21 [PU24F, 2-Fluoro-9-pent-4-ynyl-8-(3,4,5-trimethoxy-benzyl)-9H-purin-6-ylamine] | 0.7 | 11 | 15 | 14 | 6.2 | 5 |  |  |  |  | 
CCC(C)Cn1c(Cc2cc(OC)c(OC)c(OC)c2)nc2c(N)ncnc21 (stereo not shown) [PU26] | 15.7 |  |  |  | 25.3 |  | 62 | 71 | 70 |  | 
COc1cc(Cc2nc3c(N)nc(F)nc3n2CCOC(C)C)cc(OC)c1OC [PU29F, 2-Fluoro-9-(2-isopropoxy-ethyl)-8-(3,4,5-trimethoxy-benzyl)-9H-purin-6-ylamine] | 1.3 | 16 | 16 |  | 2 | 15 |  |  |  |  | 
CCC(CC)Cn1c(Cc2cc(OC)c(OC)c(OC)c2)nc2c(N)ncnc21 [PU14] | 52.1 |  |  |  | 62.3 |  | 160 | 130 | > 100 |  | 
COc1cc(Cc2nc3c(N)ncnc3n2CC2CCC2)cc(OC)c1OC [PU16] | 32 |  |  |  | 17 |  | 46 | 68 | 60 |  | 
CC/C=C/Cn1c(Cc2cc(OC)c(OC)c(OC)c2)nc2c(N)ncnc21 [PU23] | 9.5 |  |  |  | 13.3 |  | 47 | 55 | 50 |  | 
CCCCCn1c(Cc2cc(OC)c(OC)c(OC)c2)nc2c(N)nc(F)nc21 [PU21F, 2-Fluoro-9-pentyl-8-(3,4,5-trimethoxy-benzyl)-9H-purin-6-ylamine] | 8.9 | 36 | 19 | 43 | 22 | 35 |  |  |  |  | 
CCCCn1c(Cc2cc(OC)c(OC)c(OC)c2Cl)nc2c(N)ncnc21 [PU3PhCl, 9-butyl-8-(2-chloro-3,4,5-trimethoxy-benzyl)-9H-purin-6-ylamine] | 4.6 | 19 | 36 | 30 | 18.6 | 25 |  |  |  |  | 
COc1cc(Cc2nc3c(N)ncnc3n2CC(C)C)cc(OC)c1OC [PU41] | 20.4 |  |  |  | 16.6 |  | 98 | 70 | 100 |  | 
C=CCCCn1c(Cc2cc(OC)c(OC)c(OC)c2)nc2c(N)nc(F)nc21 [PU47F, 2-Fluoro-9-pent-4-enyl-8-(3,4,5-trimethoxy-benzyl)-9H-purin-6-ylamine] | 9.9 | 45 | 33 | 46 | 10.7 | 50 |  |  |  |  | 
CCn1c(Cc2cc(OC)c(OC)c(OC)c2)nc2c(N)ncnc21 [PU22] |  |  |  |  |  |  | 80 | 118 |  |  | 
COc1cc(Cc2nc3c(N)ncnc3n2CC(OC)OC)cc(OC)c1OC [PU25] |  |  |  |  |  |  | 82 |  |  |  | 
COc1cc(Cc2nc3c(N)ncnc3n2CC2(C)CC2)cc(OC)c1OC [PU30] | 47.8 |  |  |  | 111 |  | 111 |  | 120 |  | 
COc1cc(Cc2nc3c(N)ncnc3n2CC2CC2)cc(OC)c1OC [PU15] | 16.2 |  |  |  | 12 |  | 75 | 70 | 70 |  | 
